Assay results taken from patent US20110053900A1, “PROGESTERONE ANTAGONISTS SUCH AS CDB-4124 IN THE TREATMENT OF BREAST CANCER” (Repros Therapeutics inc, priority 2008, published 2011).

Key:
[1] = Serum progesterone by ELISA; format: in vivo, rat
Method: (§1) The animals were assessed three times for their levels of progesterone: initially, when they were about to go on treatment; a second time after 21 days of treatment; and finally after treatment at sacrifice which was 2-4 days after the last s.c. injection. All blood samples were taken by heart puncture; serum was prepared and held frozen at −40° C. The levels of the steroid hormones progesterone, cortisol, and corticosterone were determined by ELISA.
(§2) The concentrations of steroid hormones were determined three times during the study: before the beginning of treatments, after 21 days of treatment and finally after treatment at sacrifice which was 2-4 days after the last s.c. injection. All samples were taken by heart puncture. Serum was obtained and held frozen at −40° C. The levels of steroid hormones were determined by ELISA.

[2] = test system: rat tumors (proliferation marker Ki-67); test: Tumor proliferation by Ki-67 immunohistochemistry; format: in vivo; conditions: 10 mg/kg
Source text: In order to assess the effects of progestins and anti-progestins on cell proliferation, tissue sections derived from 46 individual rat tumors from treated an control animals were examined by measuring expression of the proliferation marker Ki-67 using the Ki-67 antibody (NeoMarkers, Fremont, Calif.) and immunohistochemistry. Despite the reduction in size of many tumors in Groups 3 and 6 following treatment in Groups 3 and 6 making them too small to be re-cut, 7-12 ACAs from Groups 1, 3, 4, 6 and 11 were re-cut. The results of proliferation experiments, in which proliferation was measured as a percentage of cells expressing Ki-67, are summarized in Table 4: […]

rat tumors = test: Apoptosis in tumors; format: in vivo; conditions: 10 mg/kg
Method: Apoptosis was evaluated in the same tumors by an apoptosis hybridization kit (Oncor, Gaithersburg, Md.). The cells in apoptosis were evaluated in the peripheral areas of the tumors and far from necrosis. At least 1,000 cells per tumor section were evaluated.

estrogen receptor (ER) = test: Expression of estrogen receptor in tumors (IHC); format: in vivo, rat; conditions: 10 mg/kg
Method: (§3) The tumors that were evaluated for proliferation and apoptosis were also assessed for expression of estrogen and progesterone receptors by immunohistochemistry (IHC). The percentage of cells positive for ER and PR was determined and analyzed. Tumors were grouped into four different categories: tumors with 0% of cells expressing ER, tumors with 10% of cells expressing ER, tumors with 15 to 30% of cells expressing ER and tumors with 30-50% of cells expressing ER. In general, untreated tumors consistently expressed ER. Out of 12 tumors analyzed, all 12 expressed ER. Four out of these 12 tumors contained 30-50% ER-positive cells.

[3] = test system: DMBA-induced tumors of the rat mammary gland; test: DMBA-induced breast tumors: tumor progression (growth pattern); format: in vivo; conditions: 10 mg/kg
Method: (§4) To induce breast tumors, Sprague-Dawley female rats were given 10 mg/kg body weight of DMBA at 50 days of age. One group of 14 rats (Group 2) received sesame oil at 50 days of age instead of DMBA to serve as the no-DMBA controls. Animals were weighed and palpated weekly along the milk line for any sign of lesions or swellings. Tumor nodules were noted and measured weekly in two dimensions with calipers. When tumors grew to a size of 10-12 mm in any dimension, the individual animal was randomized into one of 14 groups. Tumors appeared as soon as 39 days after oral gavage and as late as 194 days (latter individual not included in study). The mean latency period for tumor appearance was 106±30 days.
(§5) Animals were treated for 28 days on the following schedule. Group 1 received daily subcutaneous (s.c.) injections of vehicle (10% ethanol in sesame oil). Group 2 (no DMBA control group-no tumors expected) received vehicle on a schedule decided beforehand to simulate initiation of treatment over a three-month time period. […] Groups 5 through 9 received 20 mg/kg, 10 mg/kg, 2 mg/kg, 1 mg/kg and 0.1 mg/kg of CDB-4124, respectively. Groups 10 through 14 mirrored the treatment given 5 through 9 except that 10 mg/kg of micronized progesterone was also added as a component to compositions for injections.
In order to evaluate the effects of CDB-4124, RU486 and progesterone on tumor development and progression, growth kinetics and tumor size were monitored during the treatment period. Individual tumors from animals with tumors in the study were measured weekly in two dimensions with calipers. The data is corrected to exclude the non-malignant FA/AF tumor types. Tumors that increased in cross-sectional area by at least 33% over the 28-day inspection period were considered to be growing (FIG. 1, black boxes). Those that decreased by approximately 33% were considered to be regressing (FIG. 1, white boxes). Others were considered to be static (FIG. 1, gray boxes).

[4] = test system: DMBA-induced tumors of the rat mammary gland; test: DMBA-induced breast tumors: tumor number, size and tumor burden at necropsy; format: in vivo; conditions: 10 mg/kg s.c. daily, 28 days
Method: as §4, §5
(§6) Animals were sacrificed 3-5 days after the end of the 28-day treatment period, blood was drawn, and tumors were removed, weighed, measured, inspected, and portions frozen and/or placed in 10% phosphate buffered formalin for histopathology. The tissue samples were cut and stained with hematoxylin and eosin and were evaluated for histopathological classification.
The results in Table 3 are those for ACA, PCA and mixed ACA/PCA, but the FA or AF tumors are excluded.

[5] = Serum corticosterone by ELISA; format: in vivo, rat; conditions: exogenous progesterone 10 mg/kg, after 21 days of treatment, paired groups
Method: as §1, §2
Corticosterone is the most abundant glucocorticoid in rats. The effects of the SPRMs on cortisol may be secondary to strong effects on corticosterone. […] The levels of corticosterone were 10-40 times higher than the levels of cortisol. However, almost no difference between groups with respect to mean corticosterone levels was observed. […] There was no statistical difference in levels of corticosterone between animals with tumors and without tumors at either 21-days (p=0.94, t-test, two-tailed) or at sacrifice (p=0.37, t-test, two-tailed).

[6] = test system: progesterone receptor (PR); test: Expression of progesterone receptor in tumors (IHC); format: in vivo, rat; conditions: 10 mg/kg
Method: as §3
Untreated tumors consistently expressed PR (12/12 tumors). In general, untreated tumors expressed both receptors, ER and PR, therefore it is possible that many malignant tumors are expressors of these two transcription factors. […] In general, long term treatment with CDB-4124 tends to drive down the level of PR in tumors, whereas progesterone tends to work in the opposite direction. Thus, tumors maintain progesterone responsiveness in the presence of progesterone.

[7] = test system: DMBA-induced tumors of the rat mammary gland; test: DMBA-induced breast tumors: tumor number and tumor type at necropsy; format: in vivo; conditions: 10 mg/kg s.c. daily, 28 days
Method: as §4, §5, §6
Histologically, four types of tumors were identified (Table 2): adenocarcinomas (ACAs), papillary carcinomas (PCAs), a fibrosarcoma, and fibroadenomas or adenofibromas (FA or AF), the latter two tumor types were not considered to represent frank malignancies.

CC(=O)[C@H]1CC[C@H]2[C@@H]3CCC4=CC(=O)CC[C@]4(C)[C@H]3CC[C@]12C [Progesterone, progesterone]
Serum Progesterone, Before TX (mean) ([1]; 10 mg/kg group, before treatment): 51 ng/mL
Serum Progesterone, During TX (mean) ([1]; 10 mg/kg, after 21 days of treatment): 55 ng/mL
Serum Progesterone, After TX (mean) ([1]; 10 mg/kg, at sacrifice 2-4 days after the last s.c. injection): 54 ng/mL
Proliferating tumor cells by Ki-67, % cells positive [2]: 25.7 ± 5.8%
Apoptosis, % cells positive (rat tumors): 1.28 ± 0.51%
number of cells expressing ER in tumors (in words) (estrogen receptor (ER)): increased number of cells expressing ER
proportion of tumors regressing ([3]; decrease of cross-sectional area by about 33% over 28 days): 8%
proportion of the growing tumors ([3]; increase of cross-sectional area by at least 33% over 28 days): 80%
Tumor Burden [4]: 7.34 g/rat
Tumor Weight mean [4]: 1.5 g
Tumor Weight median [4]: 0.5 g
Number of Tumors ([4]; FA/AF excluded): 49
effect on serum corticosterone (in words) [5]: levels of corticosterone were lowered
PR expression in tumors (in words) [6]: tended to raise PR expression
ACA + PCA per rat [7]: 4.90
ACA per rat [7]: 3.3
FA/AF no. [7]: 3
Incidence of tumors (%) [7]: (100) %
Incidence of tumors (rats with tumors/rats) [7]: 10/10
PCA per rat [7]: 1.4
ACA + PCA per rat ([7]; listed as progesterone): ~5
